Measurements taken from patent US20040138094A1, “Treatment regimes” (priority 2003, published 2004).

Experiments:
THP1 macrophages = assay: ApoA1-specific cholesterol efflux from THP1 macrophages; type: cell-based, human
Procedure: (§1) Following differentiation to macrophages, THP1 cells were washed in serum-free medium and incubated in 5% FBS medium containing 1 μCi/mL of [^3H]-cholesterol (New England Nuclear) and 0.2% fatty acid-free BSA (faf BSA) for a further 24 h. The cells were washed in serum-free medium and then incubated for 24 h in serum-free medium supplemented with 1.5% faf BSA±test compound or vehicle (0.1% DMSO). The equilibration medium was removed and the cells washed twice in serum-free medium. Serum-free DMEM containing compound±purified human apolipoprotein (apo) Al ([…], Athens Research & Technology) was added. The cells were maintained for 24 h before medium and cell extract samples were generated. Scintillation counting was performed to determine the percentage cellular cholesterol efflux±apoAl. 1BR3N human skin fibroblast cells were plated in 6-well plates at a density of 1×10^6 cells/well in DMEM medium containing 10% FBS and cultured for 24 h. Efflux studies were performed as in the THP1 macrophages except that the cells were maintained for 48 h before scintillation counting was performed.

[1] = system: ABCA1 mRNA in THP1 macrophages; assay: ABCA1 mRNA expression by RTQ-PCR in THP1 macrophages; type: cell-based, human; conditions: for Induction of ABCA1 mRNA expression (in words): THP1 macrophages, 100 nM, FIG. 1A
Procedure: (§2) THP1 human monocyte cells (ATCC TID-202), in 6-well plates at a density of 1×10^6 cells/well in RPMI 1640 medium containing 10% FBS, were differentiated into macrophages by treatment with PMA (100 ng/ml) for 5 days. 1BR3N human skin fibroblasts (ECACC 90020508) and FHS74 human intestinal cells (ATCC CCL-241) were plated in 6 well plates at a density of 1×10^6 cells/well in the recommended maintenance media. Cells were treated with vehicle (0.1% DMSO) or test compound for 48 h prior to harvesting. Total RNA was generated using the Qiagen RNeasy Mini Kit and DNase treated according to the manufacturer's protocol (Ambion). ABCA1 expression was analysed using RTQ-PCR on an ABI PRISM 7700 sequence detection system (P. E. Applied Biosystems). Primer/probe sequences used were as follows: ABCA1 forward primer 5′-[…]-3′, (Seq ID No:1) reverse primer 5′-[…]-3′, (Seq ID No:2) probe 5′FAM-[…]-TAMRA3′ (Seq ID No:3) Expression data were normalised to 18S as described by the vendor.

[2] = system: ABCA1 mRNA in 1BR3N human skin fibroblasts; assay: ABCA1 mRNA expression by RTQ-PCR in 1BR3N human skin fibroblasts; type: cell-based
Procedure: as §2

[3] = system: ABCA1 mRNA in FHS74 human intestinal cells; assay: ABCA1 mRNA expression by RTQ-PCR in FHS74 human intestinal cells; type: cell-based
Procedure: as §2

[4] = system: 1BR3N human skin fibroblasts; assay: ApoA1-specific cholesterol efflux from 1BR3N human skin fibroblasts; type: cell-based
Procedure: as §1

macrophages = conditions: 50 μM, reported in ref 16; cited from earlier work
ABCA1 in macrophages = conditions: 50 μM, reported in ref 16; cited from earlier work
[5] = THP1 macrophages, 100 nM, FIG. 1B

CC(C)(Sc1ccc(CCN(CCCCC2CCCCC2)C(=O)NC2CCCCC2)cc1)C(=O)O [GW7647, reference compound]
Effect on cholesterol efflux (in words) (THP1 macrophages; [5]): ineffective
Induction of ABCA1 mRNA expression (in words) [1]: only a weak effect

COC(=O)c1ccccc1N[C@@H](Cc1ccc(OCCc2nc(-c3ccccc3)oc2C)cc1)C(=O)O [GW7845, reference compound]
Effect on cholesterol efflux (in words) (THP1 macrophages; [5]): ineffective
Induction of ABCA1 mRNA expression (in words) [1]: also induced ABCA1 expression

Cc1cc(SCc2sc(-c3ccc(C(F)(F)F)cc3)nc2C)ccc1OCC(=O)O [GW501516, 2-(2-methyl-4[({4-methyl-2[4-(trifluoromethyl)phenyl]-1,3-thiazol-5-yl}methyl)sulfanyl]phenoxy}acetic acid]
ABCA1 mRNA (% increase) ([2]; 1BR3N fibroblast, 48 h, (GW-vehicle)/vehicle × 100, mean ± S.D., triplicate): 240 ± 25%
Increase in ABCA1 expression ([2]; 1BR3N human skin fibroblasts): 3.4 fold
Cholesterol efflux (% increase) (THP1 macrophages; THP1 macrophage, (GW-vehicle)/vehicle × 100, mean ± S.D., triplicate): 100 ± 15%
Increase in cholesterol efflux to apoA1 (THP1 macrophages; [5]): 2 fold
Increase in ABCA1 expression ([3]; FHS74 human intestinal cells): 2.1 fold
ABCA1 mRNA (% increase) ([3]; FHS74 intestinal, 48 h, (GW-vehicle)/vehicle × 100, mean ± S.D., triplicate): 115 ± 30%
ABCA1 mRNA (% increase) ([1]; THP1 macrophage, 48 h, (GW-vehicle)/vehicle × 100, mean ± S.D., triplicate): 460 ± 150%
Induction of ABCA1 mRNA expression (in words) [1]: strong induction
Cholesterol efflux (% increase) ([4]; 1BR3N fibroblast, (GW-vehicle)/vehicle × 100, mean ± S.D., triplicate): 110 ± 10%
Increase in apoA1-specific cholesterol efflux ([4]; 1BR3N human skin fibroblasts): 2 fold

Cc1cccc(Nc2cc(Cl)nc(SCC(=O)O)n2)c1C [Wy14,643]
Cholesterol efflux from macrophages (in words) (macrophages): induces
ABCA1 expression (in words) (ABCA1 in macrophages): induces
